Experimental data published in publication PMC9696579 (Nature structural & molecular biology, 2022).
Where a SMILES comes first, the peptide text is derived from it. The star is where a group is joined. 5FAM = O=C1OC2(c3ccc(O)cc3Oc3cc(O)ccc32)c2ccc(C(=O)*)cc21; PEG3 = NCCOCCOCCOCCC(=O)O

How the values were obtained:
human PKA-Cα = human PKA-Cα (Homo sapiens, UniProt P17612); assay: Fluorescence polarization, FAM-labeled SMO peptide binding to human PKA-Cα; conditions: human or mouse PKA-Cα
SMO [1] = assay: Immunofluorescence of SMO and endogenous PKA-C in NIH3T3 cilia
SMO [2] = conditions: inverse agonist; cited from earlier work
PKA-Cα [3] = assay: BRET analysis of SMO / PKA-C interactions in IMCD3 cells; type: cell-based, mouse; conditions: PKA-C expressed at near-endogenous levels, n = three
PKA-Cα [4] = assay: SMO / PKA-C colocalization in cilia of IMCD3 cells; type: cell-based; conditions: WRR mutation, SAG21k 1 μM overnight
GLI = GLI transcriptional reporter assay in Smo−/− MEFs; type: cell-based, mouse; conditions: ShhN conditioned medium, 2 days, n = three
mouse PKA-Cα = mouse PKA-Cα (Mus musculus, UniProt P05132); assay: Surface plasmon resonance; conditions: SPR
[5] = target: mouse PKA catalytic subunit (Cα) (Mus musculus, UniProt P05132); assay: In vitro PKA-C activity assay; type: biochemical; conditions: read-out: IC50 for PKA-C activity; recombinant SMO pCT; apparent IC50; 15–30 nM Cα, 260 μM Kemptide, 100 μM ATP, 10 mM MgCl2, 100 mM MOPS pH 7; 3 min preincubation, room temperature; two independent experiments
PKA-Cα [6] = assay: BRET analysis of SMO / PKA-C interactions in HEK293 cells; type: cell-based, mouse; conditions: nanoluc-tagged SMO657 with YFP-tagged PKA-Cα, mean, n = three
smo−/− zebrafish = assay: Slow muscle specification in smo−/− zebrafish embryos; type: in vivo, Danio rerio; conditions: mRNA injection; Prox1 / Engrailed staining; <26 hours post-fertilization

Compound: CC[C@H](C)[C@H](NC(=O)[C@H](C)NC(=O)CNC(=O)[C@H](CCCNC(=N)N)NC(=O)[C@H](CCCNC(=N)N)NC(=O)[C@H](C)NC(=O)[C@@H](NC(=O)[C@H](CCSC)NC(=O)[C@H](CCCCN)NC(=O)[C@@H](NC(=O)[C@@H](NC(=O)[C@H](Cc1c[nH]cn1)NC(=O)[C@H](CCC(N)=O)NC(=O)[C@H](C)NC(=O)[C@H](Cc1c[nH]c2ccccc12)NC(=O)[C@H](C)NC(=O)[C@H](CO)NC(=O)[C@H](CO)NC(=O)[C@@H](NC(=O)[C@H](CC(=O)O)NC(=O)[C@H](C)NC(=O)[C@H](CO)NC(=O)CCOCCOCCOCCNC(=O)c1ccc2c(c1)C(=O)OC21c2ccc(O)cc2Oc2cc(O)ccc21)C(C)C)C(C)C)[C@@H](C)O)C(C)C)C(=O)N[C@@H](CC(C)C)C(=O)N1CCC[C@H]1C(=O)O ({5FAM-PEG3}-SADVSSAWAQHVTKMVARRGAILP-OH)
- ATP dependence of interaction with PKA-Cα (human PKA-Cα): strongly ATP-dependent

Compound: CNC1CCC(N(Cc2cccc(-c3ccncc3)c2)C(=O)c2sc3ccccc3c2Cl)CC1 (stereo not shown) [SAG]
- accumulation of SMO in cilia (SMO [1]; NIH3T3 stably expressing SMO-V5-TurboID, SAG 100 nM, anti-V5): dramatic accumulation of SMO in cilia

Compound: CC1=C2C[C@H]3[C@@H](CC=C4C[C@@H](O)CC[C@@]43C)[C@@H]2CC[C@]12O[C@@H]1C[C@H](C)CN[C@H]1[C@H]2C [cyclopamine]
- effect on SMO (accumulation in cilia, conformation) (SMO [2]): induces SMO to accumulate in cilia but traps it in an inactive conformation
- SMO colocalization with endogenous PKA-C in primary cilium (SMO [1]; NIH3T3, cyclopamine 5 μM, 8 hours): did not occur

Compound: SMO WRR: full-length SMO with WRR mutation (SADVSSAAAQHVTKMVAAAGAILPQDVSVTPVATPVPP)
- interaction with PKA-C (BRET) (PKA-Cα [3]): prevented interaction between SMO and PKA-C
- colocalization with PKA-C in cilia (PKA-Cα [4]): dramatically reduced colocalization in cilia
- GLI transcriptional response (GLI): almost completely devoid of activity

Compound: SMO pCT: recombinant protein encompassing the entire 93 amino-acid SMO pCT, GST-tagged for SPR
- ATP/MgCl2 dependence of PKA-C binding (mouse PKA-Cα; ATP and MgCl2 omitted, PKA-Cα […]): depended strictly on ATP and MgCl2
- binding to PKA-Cα (mouse PKA-Cα; mouse PKA-Cα, ATP and MgCl2 present): bound specifically to mouse PKA-Cα

Compound: recombinant SMO pCT: residues 565–657 of mouse SMO, cleaved from MBP-His8-SUMO tags
- IC50 [5]: 10.9 µM

Compound: wild-type SMO657: nanoluc-tagged truncated SMO construct
- BRET with PKA-C (PKA-Cα [6]): strong, specific BRET

Compound: wild-type SMO: full-length wild-type SMO construct
- GLI transcriptional response (GLI): strong GLI transcriptional responses to Hh ligands
- muscle specification in smo−/− zebrafish (smo−/− zebrafish): restored correct muscle specification
